Reference: US20090069324A1, “CHEMICAL INHIBITORS OF BFL-1 AND RELATED METHODS” (The Burnham Institute, priority 2007, published 2009)
Several values for one entry are separate records, joined by “and”; a condition that tells them apart may be missing. Equal entries are not always repeated. Entries after “also recorded” stand apart in the source; their conditions may differ.

What was measured:
Bcl-B = biological target: T1, Bcl-B (Homo sapiens, UniProt Q9HD36); assay: Bcl-B/FITC-TR3-R8 FPA selectivity assay; type: binding
T1 construct: lacking their C-terminal transmembrane domains (approximately last 20 amino-acids); GST (N); made in house; host or cells: XL-1 Blue cells (E. coli), pGEX 4T-1
T1 sequence (Q9HD36 1-182 limits assumed): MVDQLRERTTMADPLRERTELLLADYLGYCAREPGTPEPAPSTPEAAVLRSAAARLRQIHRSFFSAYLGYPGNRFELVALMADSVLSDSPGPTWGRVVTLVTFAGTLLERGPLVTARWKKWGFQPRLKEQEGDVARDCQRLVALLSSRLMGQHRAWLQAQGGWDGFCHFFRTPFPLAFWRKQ
Description: (§1) This example illustrates assays for determining the selectivity of chemical inhibitors for Bfl-1. Bfl-1, as with other Bcl-2 family proteins, participates in a very complex and intricate network of interactions with other representatives of the family. Therefore, two selectivity assays involving family members Bcl-2 and Bcl-B were developed.
(§2) For Bcl-2, a FITC-conjugated peptide corresponding to the BH3 domain of Bim was used. For Bcl-B, a FITC-conjugated peptide corresponding to a fragment of the TR3/Nur77 protein shown to bind this member of the Bcl-2 family was used.
(§3) Probe specificity for target or for cell-based/phenotypic assays data can be determined in orthogonal cell-based assay systems that address the pathway of interest. For example, compounds were tested in Bfl-1/FITC-Bid FPA and TR-FRET assays (FIGS. 7A and 7B, respectively), as well as Bcl-2/FITC-Bim FPA (FIG. 7C) and Bcl-B/FITC-TR3-R8 FPA (FIG. 7D) assays. Data represent concentration in μM x-axis) vs % displacement (y-axis).

Bcl-2 = biological target: T2, Bcl-2 (Homo sapiens, UniProt P10415); assay: Bcl-2/FITC-Bim FPA selectivity assay; type: binding
T2 construct: lacking their C-terminal transmembrane domains (approximately last 20 amino-acids); GST (N); made in house; host or cells: XL-1 Blue cells (E. coli), pGEX 4T-1
Description: as §1, §2, §3

Bfl-1 [1] = biological target: T3, Bfl-1 (Homo sapiens, UniProt Q16548); assay: Bfl-1 fluorescence polarization assay (FPA/FP), competition with FITC-Bid BH3 peptide; type: binding
T3 construct: lacking their C-terminal transmembrane domains (approximately last 20 amino-acids); made in house; host or cells: XL-1 Blue cells (E. coli), pGEX 4T-1
T3 sequence (Q16548 1-155 limits assumed): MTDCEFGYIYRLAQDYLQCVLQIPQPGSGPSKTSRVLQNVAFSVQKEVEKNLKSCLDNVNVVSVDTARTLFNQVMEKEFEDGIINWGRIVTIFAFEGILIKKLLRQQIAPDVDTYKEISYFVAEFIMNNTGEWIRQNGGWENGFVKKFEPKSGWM
Method: Fluorescence polarization assays (FPA). To determine the binding affinity of anti-apoptotic Bcl-2 polypeptides to FITC-conjugated Bid BH3 peptide, fluorescence polarization assays (FPAs) were performed according to published procedures (Zhai et al., Biochem. J. 376:229-236 (2003)). […] Fluorescence polarization was measured after 10 min using an Analyst™ AD Assay Detection System (LJL Biosystem, Sunnyvale, Calif.) in phosphate-buffered saline (PBS) (pH 7.4). The IC50 determinations were performed using GraphPad Prism software (GraphPad, Inc., San Diego, Calif.).
Competition assays. Using the same procedure outlined above, 100 nM of GST-Bfl-1 protein were incubated with the compounds at 50 μM concentration for 30 min. Then, 5 nM of FITC-Bid BH3 peptide was added. Fluorescence polarization was measured after 10 min. […]

Bfl-1 [2] = biological target: T3, Bfl-1; assay: Bfl-1 TR-FRET assay (FITC-Bid, Tb-anti-GST antibody); type: binding
Method: TR-FRET assay. For confirmation of FPA results, a TR-FRET assay utilizing terbium- (Tb-) labeled anti-GST antibody (Th-Ab) was developed. […] The reaction mixture was preincubated for 1 h, and TR-fluorescence (TRF) was measured on an M5 plate reader (Molecular Devices) using excitation at 340 nm and emission at […]. The measurements were averaged from 5 readings during 1 ms after an initial delay 0.1 ms. TR-FRET signal was calculated as the ratio of TR-Fluorescence at 520 nm to TR-Fluorescence at […].
For Bfl-1 TR-FRET assays, Bfl-1 protein and FITC-Bid peptide (FITC-Ahx-[…]) (SEQ ID NO: 1) were utilized. Terbium-anti-GST antibody (Tb-anti-GST Ab) was obtained from Invitrogen (San Diego Calif.). The assay buffer contained 25 mM Bis-Tris, pH 7.0, 1 mM TCEP, and 0.005% Tween 20. The Tb-Ab buffer contained 2.5 nM Tb-anti-GST antibody in assay buffer. The Bfl-1/Th-Ab working solution contained 5 nM Bfl-1 in Th-Ab assay buffer. The solution was prepared fresh and kept on ice prior to use. The FITC-Bid working solution contained 5.6 nM FITC-Bid in assay buffer.
For the Bfl-1 TR-FRET dose-response screening protocol, dose-response curves contained 10 concentrations of compounds obtained using 2-fold serial dilution. Compounds were serially diluted in 100% DMSO, and then diluted with water to 10% final DMSO concentration. A 4 μl aliquot of compounds in 10% DMSO was transferred into columns 3-22 of Greiner 384-well white small-volume plates. Columns 1-2 and 23-24 contained 4 μL of 10% DMSO.
Columns 1-2 were reserved for positive controls, and 8 μL of Th-Ab buffer was added using a WellMate bulk dispenser (Matrix). An aliquot of 8 μL of Bfl-1/Th-Ab working solution was added to columns 3-24 of Greiner 384 well white plates using a WellMate bulk dispenser (Matrix). Columns 23-24 represented negative control wells. Plates were incubated for 1 h at 4° C. An 8 μL aliquot of freshly prepared FITC-Bid working solution was added to the whole plate using WellMate bulk dispenser (Matrix). Plates were incubated for 4 h at room temperature protected from direct light. Fluorescence was measured on the M5 plate reader (excitation: 340 nm, emission: 490 and 520 nm, cutoff: 475 and 515 nm, respectively) in Time Resolved (TR) mode with signal integrated for 1 ms after initial delay of 0.1 ms. TR-FRET signal was calculated as the ratio of TR-Fluorescence at 520 nm to TR-Fluorescence at 490 nm. Data analysis was performed using a sigmoidal dose-response equation through non-linear regression.

[3] = test system: RS11846 B-lymphoma cell line; assay: Induction of apoptosis, Annexin-FITC/PI flow cytometry; type: cell-based, human; settings: 16 hours incubation
Description: To test compounds for their ability to induce apoptosis in cancer cells, the RS11846 B-lymphoma cell line was used. The RS11846 cell line was established from a patient with an aggressive form of diffuse large cell lymphoma, representing a subset of B-lymphoma in humans. This type of human B-lymphoma is characterized by infiltration beyond lymphoid compartment (bone marrow, spleen, lymph nodes, liver and etc.), typically infiltrate into ovary (in female), testis (in male), spinal cord and CNS (central nervous system) therefore given nomenclature of “diffuse.” Histo-pathologically, the RS11846 cell line is diffuse large cell B-lymphoma, thus representing an immature, aggressive form of the disease. […] Therefore, this cell line is suitable for examining biological effects of Bfl-1 antagonists concerned in this patent application.
For the assay to test compounds for their ability to induce apoptosis, the RS11846 B-lymphoma cell line was cultured in RPMI-1640 supplemented by 10% FBS and Penicillin/Streptomycin. The cells were seeded at cell density of half a million cells per ml, and incubation time was 16 hours. In the assay, cell viability was analyzed by the Annexin-FITC/PI method, using flow cytometry, or FACS analysis. Viable cells were defined by Annexin-FITC-negative, PI-negative. Compensation was done using conventional methods and using the Flo-jo program.
IC50 (50% killing) was determined using an extrapolation method based on the finding that biological response is almost linear near at 50% inhibition point when plotted against semi-log scale on X-axis. See, D. J. Finney, Statistical Method in Biological Assay, Griffin, London, 1978. Briefly, % viability was plotted on Y-axis on an ordinary scale, while drug concentration was plotted on X-axis on a semi-log scale. The actual 50% inhibition point is on the line between left-bracket (higher than 50% inhibition) and right bracket (lower than 50% inhibition), and it can be extrapolated on the line on a semi-log scale. Thus, IC50 was extrapolated via left bracketing and right bracketing, and extrapolated on a semi-log scale, and then, re-converted back to an ordinary scale.

[4] = test system: anti-apoptotic members of the Bcl-2-family; assay: FPA competition assay, GST-Bcl-2 fusion proteins with FITC-Bid BH3 peptide in PBS; type: binding, human; settings: 100 nM GST-fusion proteins, 5 nM FITC-Bid BH3 peptide
Method: Bcl-2-binding compounds were tested by competition assay analysis. The green tea compound […] (EGCG) has been reported to bind Bcl-2 and Bcl-XL (Leone et al., Cancer Res 63:8118-8121 (2003)). The ability of EGCG to compete with fluorochrome-labeled BH3 peptides was confirmed by FPA. 100 nM of GST-Bcl-2 fusion proteins were incubated with various concentrations of EGCG or control compound ECG (“C”) for 2 min in PBS buffer in 50 uL. Next, 5 nM FITC-conjugated-Bid BH3 peptide was added, bringing final volume to 100 uL and final DMSO concentration to 1%. Fluorescence polarization was measured after 20 min. […] This compound therefore can serve as a positive control when performing high throughput screens of a chemical library.

Solubility = assay: Solubility
Method: Compounds were screened for inhibitory activity of Bfl-1 essentially as described in Example 1, and including a 1 h incubation of Bfl-1 in the presence of compounds and a 4 h incubation after the subsequent addition of the fluorescent probe. […] The assay was screened against the entire NIH small molecule library, which at the time consisted of 65,000 compounds. […] Controls included an “artifact” plate on which a GAPDH assay was performed to check selectivity, and a solubility plate on which a solubility assay was performed to test solubility.

[5] = Tables 3-5, read-out: Bfl-1 TR FRET IC50

T2 sequence (P10415 1-218 limits assumed): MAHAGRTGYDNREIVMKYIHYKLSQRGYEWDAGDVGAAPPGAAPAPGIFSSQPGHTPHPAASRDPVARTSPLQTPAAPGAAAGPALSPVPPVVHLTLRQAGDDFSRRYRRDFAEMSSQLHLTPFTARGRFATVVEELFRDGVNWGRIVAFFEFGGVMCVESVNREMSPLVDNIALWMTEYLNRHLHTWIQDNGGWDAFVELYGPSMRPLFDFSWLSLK

CC(C)C(C(=O)O)N1C(=O)/C(=C/c2ccc(Br)cc2)SC1=S (stereo not shown) [BH3I-1, (Z)-2-(5-(4-Bromobenzylidene)-4-oxo-2-thioxothiazolidin-3-yl)-3-methylbutanoic acid, reference compound]
IC50 (Bcl-B; read-out: Bcl-B (FP): IC50): 1080 nM | IC50 (Bcl-2; read-out: Bcl-2 (FP): IC50): 1140 nM | IC50 (Bfl-1 [1]; conditions not stated, not the assay with 0.005% Tween 20, read-out: Bfl-1 (FP): IC50): 4650 nM | IC50 (Bfl-1 [1]; in the presence of 0.005% Tween 20, read-out: IC50 in Bfl-1 FP assay): > 20000 nM

CN1CCN(C2=C(Cl)C(=O)N(c3ccc(Cl)c(Cl)c3)C2=O)CC1 [CID-1180676, 3-chloro-1-(3,4-dichlorophenyl)-4-(4-methylpiperazin-1-yl)pyrrole-2,5-dione]
Effect on complex of Bcl-B/FITC-TR3-R8, in words (Bcl-B): did not affect | Competition for binding of a BH3 peptide to Bcl-2, in words (Bcl-2; Bcl-2/FITC-Bim complex): limited activity | Bfl-1 TR-FRET assay, activity in words (Bfl-1 [2]; Bfl-1/FITC-Bid): submicromolar potency; also recorded: potently disrupt | IC50 (Bfl-1 [2]; [5]): 0.56 µM | IC50 (Bfl-1 [2]; Tables 7-8, Avg where the cell lists several determinations, read-out: Bfl-1 TR-FRET IC50): 0.479 µM | Bfl-1 TR-FRET IC50 (uM), individual determinations (Bfl-1 [2]; Tables 7-8, single values listed before the Avg): nofit | IC50 (Bfl-1 [2]; Tables 7-8, single values listed before the Avg, read-out: Bfl-1 TR-FRET IC50 (uM), individual determinations): 0.304 µM and 0.443 µM and 0.317 µM and 0.471 µM and 0.445 µM and 1.09 µM and 0.475 µM and 0.584 µM and 0.186 µM | Bfl-1 FP assay, activity in words (Bfl-1 [1]; Bfl-1/FITC-Bid): submicromolar potency; also recorded: potently disrupt | IC50 (Bfl-1 [1]; Tables 3-5, read-out: Bfl-1 FP IC50): 750 nM | IC50 (Bfl-1 [1]; Tables 7-8, Avg where the cell lists several determinations, read-out: Bfl-1 FPA IC50): 617 nM

CCOC(=O)CS(=O)(=O)c1nc(-c2ccccc2)cc(C(F)(F)F)n1 [Compound 3]
induction of apoptosis [3]: induction of apoptosis

CCOC(=O)CS(=O)(=O)c1nc(-c2ccc(F)cc2)cc(C(F)(F)F)n1 [Compound 9]
induction of apoptosis [3]: induction of apoptosis

COc1ccc(-c2cc(N)n(S(=O)(=O)c3c(F)c(F)c(F)c(F)c3F)n2)cc1OC [Compound 10]
induction of apoptosis [3]: induction of apoptosis

COc1ccc(-c2cc(C(F)(F)F)nc(S(C)(=O)=O)n2)cc1OC [Compound 11]
induction of apoptosis [3]: induction of apoptosis

O=C(O[C@@H]1Cc2c(O)cc(O)cc2O[C@@H]1c1cc(O)c(O)c(O)c1)c1cc(O)c(O)c(O)c1 [ECGC, epigallecatechin]
binding to anti-apoptotic Bcl-2-family members [4]: binds to all six anti-apoptotic members of the Bcl-2-family

O=C1C(Cl)=C(N2CCN(CCOCCO)CC2)C(=O)N1c1ccc(Cl)c(Cl)c1 [MLS-0090861]
aqueous solubility compared with CID-1180676 (Solubility): enhanced aqueous solubility | IC50 (Bfl-1 [2]; [5]): 0.42 µM | IC50 (Bfl-1 [1]; text b268, assay not stated (equals FP value of Table 5), read-out: IC50): 470 nM
